In publication PMC9959553, “Promising Antifungal Molecules against Mucormycosis Agents Identified from Pandemic Response Box®: In Vitro and In Silico Analyses” (Journal of Fungi, 2023):

test system: R. oryzae UCP1295; test: Screening of the Pandemic Response Box library at 5 µM; format: cell-based, Rhizopus oryzae; conditions: 48 h, Table S1, mean of the four values
Description: Rhizopus oryzae UCP is the most prevalent Mucorales species in human infections and was used as a reference strain to screen the Pandemic Response Box® library. Screening was performed according to Rollin-Pinheiro and colleagues. Each compound was diluted in RPMI 1640 medium (Sigma Chemical Co., St. Louis, MO, USA), supplemented with 2% glucose and buffered with 3-(N-morpholino) propanesulfonic acid (MOPS) (Sigma Chemical Co., St. Louis, MO, USA) (0.165 mol/L, pH 7.2, from here on referred to as ‘supplemented RPMI’) to reach 5 μM in 96-well microtiter plates. Posaconazole (5 μM) and supplemented RPMI containing 1% DMSO were used as controls (both from Sigma Chemical Co., St. Louis, MO, USA). Conidia (2 × 10^5/mL) were added and incubated for 48 h at 37 °C in a 5% CO2 atmosphere. […] An inhibition of at least 60% was defined as the cut-off to select the promising drugs with antifungal activity against the Rhizopus species.

Compound | % of growth inhibition, Mean
NC[C@H]1O[C@H](O[C@H]2[C@H](O)[C@@H](O[C@H]3O[C@H](CO)[C@@H](O)[C@H](N)[C@H]3O)[C@H](N)C[C@@H]2N)[C@H](N)C[C@@H]1O [MMV002459] | -14.1%
O=C(NCc1ccccc1Cl)c1cnc2ccccc2n1 [MMV1230557] | -3.7%
C[C@@H]1O[C@@H]1P(=O)(O)O [MMV002354] | -22.5%
Oc1ccc(NCc2ccccc2OCc2ccccc2)cc1 [MMV1580504] | -5.9%
COc1cc(C(C(=O)NC2CCCCC2)N(C(=O)Cc2c[nH]c3ccccc23)c2ccc(C(C)C)cc2)cc(OC)c1OC (stereo not shown) [MMV1593544] | -2.6%
Cc1cc(NS(=O)(=O)c2ccc(-c3ccc(F)cc3F)cc2)no1 [MMV1782217] | -29.1%
OC1O[C@H](CSc2ccc(F)cc2)[C@@H](O)[C@H]1O (stereo partly shown) [MMV1581550] | -29.6%
Nc1nc(O)c2ncn(COC(CO)CO)c2n1 [MMV001761] | -10.5%
CCOC(=O)Nc1cc(NC(C)CC(C)CN(CC)CC)c2nc(-c3ccccc3)c(-c3ccccc3)nc2n1 (stereo not shown) [MMV1633967] | -28.6%
O=[N+]([O-])/C(Br)=C/c1ccc(Br)o1 [MMV1645051] | -39.6%
CC1=C(/C=C/C(C)=C/C=C/C(C)=C/C(=O)Nc2ccc(O)cc2)C(C)(C)CCC1 [MMV001793] | -8.1%
CNCC(=O)OCc1cccnc1N(C)C(=O)OC(C)[n+]1cnn(C[C@](O)(c2cc(F)ccc2F)[C@@H](C)c2nc(-c3ccc(C#N)cc3)cs2)c1 (stereo partly shown) [MMV1634494] | -14.8%
O=C(O)/C=C/C=C/c1cccc(Oc2cc(Cl)cc(Cl)c2)c1 [MMV1633963] | 12.3%
C[C@H]1CC[C@@]2(O)C(C)(C)[C@@H]3CC[C@@]2(C)[C@H]1C3 [MMV1578556] | -4.8%
CCc1nc2ccc(Cl)cn2c1C(=O)NCc1ccc(N2CCC(c3ccc(OC(F)(F)F)cc3)CC2)cc1 [MMV687696] | -33.4%
Clc1ccc(Cn2c(CN3CCCC3)nc3ccccc32)cc1 [MMV002015] | -4.7%

Compound | % of growth inhibition, Mean
CC(C)c1ccc(COc2cccc(-c3cc([S+](C)[O-])c(C#N)c(=O)[nH]3)c2)cc1 (stereo not shown) [MMV1582497] | -17.1%
CCc1cc(O)c(Oc2ccc(C(N)=O)cc2F)cc1F [MMV1578564] | -17.4%
CC[C@H](CO)Nc1nc(NCc2ccccc2)c2ncn(C(C)C)c2n1 [MMV003820] | -13.4%
CCCCCc1ccc(C(=O)NCCn2cc(CCCCCc3c[nH]c(N)n3)nn2)cc1.Cl [MMV1580847] | -16.8%
COc1cc(Cc2cc(N)nc(N)n2)cc(OC)c1OC [MMV1579846] | -11.6%
Fc1ccc2c(/C=C/c3cccnc3)c[nH]c2c1 [MMV1578889] | -15.1%
O=S(=O)(Nc1ccccc1)c1ccc(NC(=S)Nc2ccccc2)cc1 [MMV1578562] | -19.4%
CC(C)C(=O)N[C@H]1[C@H]([C@H](O)[C@H](O)CO)OC(C(=O)O)=C[C@@H]1N=[N+]=[N-] [MMV1782111] | -12.9%
CC1(C)Cc2c(C#N)c(SCCc3ccccc3)nc(N3CCOCC3)c2CO1 [MMV1549626] | -26.0%
C[C@H]1COc2c(N3CCN(C)CC3)c(F)cc3c(=O)c(C(=O)O)cn1c23 [MMV687798] | -8.6%
O=C(CP(=O)(O)O)NCCc1cccc(Oc2ccccc2)c1 [MMV1579787] | -30.1%
NC(=O)[C@@H]1CC[C@@H]2CN1C(=O)N2OS(=O)(=O)O [MMV1613560] | -12.6%
CC(C)(C)c1ccc(C(Cn2cccc(C(F)(F)F)c2=O)NC2Cc3ccccc3C2)cc1 (stereo not shown) [MMV1634393] | -0.4%
Clc1cc2nc(C3CCNCC3)n(Cc3ccc(CNCCc4c[nH]cn4)cc3)c2cc1Cl [MMV1580842] | 0.4%
CCc1cc(Cc2cnc(N)nc2N)cc2c1N(C)CCC2C (stereo not shown) [MMV1582490] | -3.0%
